In patent US20170202780A1, “PHARMACEUTICAL COMPOSITION” (SENTAN Pharma Inc., priority 2014, published 2017):

What was measured:
[1] = Maximum soluble amount of bulk drug for intravenous dosing; format: physicochemical; settings: expressed as dose
[2] = test system: model mouse of myocardial ischemia-reperfusion; assay: Selective drug delivery to ischemia reperfusion sites, fluorescence of heart specimens; format: in vivo; settings: stereo microscope, heart specimen 24 h after reperfusion; iv at reperfusion, FITC 40 mg/kg or FITC-NP 800 mg/kg
Procedure: Mice (C57BL/6J, 8 to 10 weeks of age, male, 25 to 30 g, n=3) were intraperitoneally administered with pentobarbital sodium (60 mg/kg) or subjected to inhalation anesthesia with isoflurane. During the procedure, respiration was controlled by a mechanical ventilator (tidal volume: 0.5 ml, respiratory rate: 140 breaths/min); the mouse was kept warm using a heating pad so that the rectal temperature was maintained at 36.8° C. to 37.2° C. An incision was made horizontally at the level of the third to fourth intercostal space; and the pericardium was opened. […] ST change in electrocardiogram and a change in the color of cardiac muscles were observed and ischemia in the cardiac muscles was checked. The silicone tube was removed 30 minutes after the ligature. Reperfusion was carried out and at the same time 0.1 to 0.2 ml of solution of test substance was intravenously injected. The chest was closed using 5-0 silk suture; and then extubation was performed after spontaneous breathing was confirmed. The intravenously-injected test substance is FITC (40 mg/kg) or FITC-NP (800 mg/kg). […]
Twenty-four hours after the reperfusion, the mouse was anesthetized again and endotracheal intubation was conducted, followed by thoracotomy. […] In evaluation of the specimen, SMZ1500 (manufactured by Nikon Corporation) was employed as an optical and fluorescence microscope.

[3] = test system: model mouse of myocardial ischemia-reperfusion; assay: Infarct size (area of infarct region/area of AAR) after myocardial ischemia-reperfusion; format: in vivo; settings: iv
Procedure: Mice (C57BL/6J, 8 to 10 weeks of age, male, 25 to 30 g, n=3) were intraperitoneally administered with pentobarbital sodium (60 mg/kg) or subjected to inhalation anesthesia with isoflurane. During the procedure, respiration was controlled by a mechanical ventilator (tidal volume: 0.5 ml, respiratory rate: 140 breaths/min); the mouse was kept warm using a heating pad so that the rectal temperature was maintained at 36.8° C. to 37.2° C. An incision was made horizontally at the level of the third to fourth intercostal space; and the pericardium was opened. […] ST change in electrocardiogram and a change in the color of cardiac muscles were observed and ischemia in the cardiac muscles was checked. […]
Twenty-four hours after the reperfusion, the mouse was anesthetized again and endotracheal intubation was conducted, followed by thoracotomy. […] In evaluation of the specimen, SMZ1500 (manufactured by Nikon Corporation) was employed as an optical and fluorescence microscope. […]
Each of the sections was stained in the same manner as described above; and the areas of infarct (region shown in white) and AAR (region shown in red) were each measured and the area of the infarct region/the area of AAR was calculated. […]
Each of the sections was stained in the same manner as described above; and the areas of infarct and AAR were each measured and the area of the infarct region/the area of AAR was calculated. […]

| SMILES | maximum soluble amount [1] | fluorescence of FITC in the infarction site [2] | reduction of the infarct size ([3]; irbesartan dosed at 3.0 mg/kg) | reduction of the infarct size ([3]; pitavastatin dosed at 10 mg/kg) |
| --- | --- | --- | --- | --- |
| CSc1ccc(C(=O)N[C@H]2CCCC[C@H]2NC(=O)CNC(=O)c2cc(C(F)(F)F)ccc2NC(=O)NC(C)C)cc1 (relative stereo) [BMS CCR2 22, 2-[(Isopropylaminocarbonyl)amino]-N-[2-[[cis-2-[[4-(methylthio)benzoyl]amino]cyclohexyl]amino]-2-oxoethyl]-5-(trifluoromethyl)benzamide] | 1.0 mg/kg |  |  |  |
| O=C1OC2(c3ccc(O)cc3Oc3cc(O)ccc32)c2ccc(N=C=S)cc21 [FITC] |  | not observed |  |  |
| CCCCC1=NC2(CCCC2)C(=O)N1Cc1ccc(-c2ccccc2-c2nnn[nH]2)cc1 [irbesartan] | 3.0 mg/kg |  | drastic reduction of the infarct size was not seen |  |
| CCc1ccc(CCOc2ccc(CC3SC(=O)NC3=O)cc2)nc1 (stereo not shown) [pioglitazone] | 3.0 mg/kg |  |  |  |
| O=C(O)C[C@H](O)C[C@H](O)/C=C/c1c(C2CC2)nc2ccccc2c1-c1ccc(F)cc1 [pitavastatin] | 10 mg/kg |  |  | drastic reduction of the infarct size was not seen |
